US6605424B1, “Method of detecting inhibitors of agonist-specific desensitization” (Duke University, priority 1989, dated 2003)
Several values for one entry are separate records, joined by “and”; a condition that tells them apart may be missing. Equal values may be shown once. Residues, ends and D or L forms follow the SMILES beside them. No end group written: not given here.

Tests used:
βAR kinase [1] = biological target: T1, βAR kinase (Bos taurus, UniProt P21146); assay: Phosphorylation of rhodopsin (urea-treated rod outer segments) by βAR kinase; type: biochemical, bovine; conditions: for inhibition of βAR kinase: polycations, FIG. 3; for Hill coefficient of inhibition: data of FIG. 1
T1 construct: βAR kinase was purified from bovine cerebral cortex; from tissue; host or cells: bovine cerebral cortex
T1 sequence (P21146 1-689): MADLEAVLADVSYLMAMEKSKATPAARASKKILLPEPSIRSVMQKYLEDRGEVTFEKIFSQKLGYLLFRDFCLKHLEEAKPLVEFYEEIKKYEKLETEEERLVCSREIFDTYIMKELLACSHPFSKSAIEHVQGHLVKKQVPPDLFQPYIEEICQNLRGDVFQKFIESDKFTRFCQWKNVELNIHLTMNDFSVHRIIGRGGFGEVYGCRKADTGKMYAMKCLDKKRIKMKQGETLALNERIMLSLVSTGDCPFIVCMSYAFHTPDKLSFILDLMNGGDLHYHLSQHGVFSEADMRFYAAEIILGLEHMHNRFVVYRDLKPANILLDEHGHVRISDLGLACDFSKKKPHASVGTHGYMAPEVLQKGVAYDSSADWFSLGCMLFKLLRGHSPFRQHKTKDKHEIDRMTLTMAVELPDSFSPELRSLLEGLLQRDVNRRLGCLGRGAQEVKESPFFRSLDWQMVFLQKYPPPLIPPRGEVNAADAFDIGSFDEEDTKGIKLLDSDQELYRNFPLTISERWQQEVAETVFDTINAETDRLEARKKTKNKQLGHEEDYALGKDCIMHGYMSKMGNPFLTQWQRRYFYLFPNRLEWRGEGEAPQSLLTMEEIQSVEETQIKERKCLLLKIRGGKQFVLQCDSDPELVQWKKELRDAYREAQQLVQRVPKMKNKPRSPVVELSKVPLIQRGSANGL
Method: βAR kinase was purified from bovine cerebral cortex by modification of procedure of Benovic et al (J. Biol. Chem. (1987) 262:9026-9032). Briefly, 250 g of bovine cerebral cortex were homogenized with a Brinkmann tissue disrupter and centrifuged (40,000×g, 30 min). The supernatant was then precipitated with 13-26% ammonium sulfate. This material was initially chromatographed on a Ultrogel AcA34 column equilibrated with 5 mM Tris-HCl, pH 7.5, 2 mM EDTA, 10 μg/ml leupeptin, 5 μg/ml pepstatin, 10 μg/ml benzamidine, 0.2 mM phenylmethylsulfonyl fluoride (buffer A). The peak activity was diluted with an equal volume of buffer A containing 0.04% Triton X-100 before being applied to a DEAE-Sephacel column. Elution was accomplished with a 0-80 mM NaCl gradient in buffer A containing 0.02% Triton X-100. The peak activity was then applied to a CM-Fractogel column and eluted with a 0-100 mM NaCl gradient in buffer A containing 0.02% Triton X-100. The purified kinase is stable at 4° C. for several months. For these studies the βAR kinase preparations were >75% pure.
Rod outer segments were prepared from bovine retinas by stepwise sucrose gradient centrifugation (Wilden et al Biochemistry (1982) 21:3014-3022). Rhodopsin kinase-free rod outer segments were prepared by treatment with 5 M urea (Shichi et al J. Biol. Chem. (1978) 253:7040-7046) and consisted of ˜95% rhodopsin, as assessed by Coomassie Blue staining of sodium dodecyl sulfate-polyacrylamide gels.
Urea-treated rod outer segments were phosphorylated with βAR kinase as follows. Urea-treated rod outer segments (˜4 μg of rhodopsin) were incubated with βAR kinase (˜0.1 μg) for 10-15 min at 30° C. in the presence of 40 mM Tris-HCl, pH 7.4, 10 mM NaCl, 5 mM MgCl2, 1.5 mM EDTA, and 65 μM ATP (˜1 cpm/fmol) (total reaction volume was 40 μl). Reactions were stopped by the addition of 40 μl of sodium dodecyl sulfate sample buffer (see below) followed by sodium dodecyl sulfate-polyacrylamide gel electrophoresis. After autoradiography, the phosphorylated rhodopsin bands were excised and counted.
Sodium dodecyl sulfate-polyacrylamide gel electrophoresis was performed by the method of Laemmli (Nature (1970) 227:680-685) using 10% homogeneous polyacrylamide slab gels. Sample buffer contained 8% sodium dodecyl sulfate, 10% glycerol, 5% 3-mercaptoethanol, 25 mM Tris-HCl, pH 6.5, and 0.003% bromphenol blue. After electrophoresis, gels were dried with a Bio-Rad gel dryer prior to autoradiography.

βAR kinase [2] = biological target: T1, βAR kinase; assay: Inhibition of β2AR phosphorylation by βAR kinase by synthetic peptides (Example III); type: biochemical, bovine; conditions: for inhibition of β2AR phosphorylation: tested at ˜0.5 mM
Method: FIG. 13. Inhibition of β2AR phosphorylation by synthetic peptides. Reconstituted β2AR (˜0.4 pmol) was incubated for 30 min at 30° with purified βAR kinase (˜30 ng) in the presence of 50 mM Tris-HCl, pH 7.5, 2 mM EDTA, 10 mM NaCl, 5 mM MgCl2, 5 mM sodium phosphate, 50 μM (−)-isoproterenol and 0.10 mM [γ^32P]ATP (2.0 cpm/fmol). Synthetic β2AR peptides were varied from 0 to 1 mM and included CI (Δ), CII (▴), CIII-2 (◯) and CT-1 (●). Reactions were stopped by the addition of […]. ^32P-labeled receptor was determined by cutting and counting the dried gel following autoradiography.
The β2-adrenergic receptor from hamster lung was purified to apparent homogeneity by sequential affinity and high performance liquid chromatography as described (Benovic et al (1984) Biochemistry 23:4510-4518). The purified receptor was reinserted into phosphatidylcholine vesicles as previously described (Cerione et al (1983) Nature 306:562-566). The protein-lipid pellets were resuspended in 20 mM Tris-HCl, pH 7.2, 2 mM EDTA and used as a substrate for the βAR kinase.
βAR kinase was purified from bovine cerebral cortex by modification of a previously described procedure (Benovic et al (1987) J. Biol. Chem. 262:9026-9032). Briefly, 250 g of bovine cortex was homogenized and the resulting high speed supernatant fraction was precipitated with 13-26% ammonium sulfate. This material was initially chromatographed on an Ultrogel AcA34 column equilibrated with 5 mM Tris-HCl, pH 7.5, 2 mM EDTA, 5 μg/ml leupeptin, 5 μg/ml pepstatin, 15 μg/ml benzamidine, 0.2 mM phenylmethyl sulfonyl fluoride (buffer A). The peak activity was diluted 1:1 with buffer A containing 0.02% triton X-100 and applied to a DEAE Sephacel column. Elution was accomplished with a 0-80 mM NaCl gradient in buffer A containing triton X-100. The peak activity was then applied directly to a CM Fractogel column and eluted with a 0-100 mM NaCl gradient in buffer A containing triton X-100. The purified kinase was stored at 4° C.
The inhibition of substrate phosphorylation by βAR kinase in the presence of synthetic peptides was assayed as follows. Reconstituted βAR (0.2-1 pmol/inclubation) was incubated with βAR kinase (10-30 ng) in a buffer containing 50 mM Tris-HCl, pH 7.5, 2 mM EDTA, 10 mM NaCl, 5 mM MgCl2, 5 mM sodium phosphate, 50 μM (−)-isoproterenol, 0.10 mM [γ-^32P]ATP (1-3 cpm/fmol) at 30° C. for 30 min. Synthetic β2AR peptides were varied in concentration from 0 to 2 mM. Reactions were quenched by the addition of SDS sample buffer followed by gel electrophoresis. In some experiments urea treated rod outer segments (Wilden et al (1982) Biochemistry 21:3014-3022; Shichi et al (1978) J. Biol. Chem. 253:7040-7046) were used as the substrate for βAR kinase. To further define the specificity of the peptide inhibition, phosvitin, casein (see Example I) and the synthetic peptides CT-2 and CT-3 were used as substrates for βAR kinase.
SDS polyacrylamide gel electrophoresis was performed by the method of Laemmli (Nature (1970) 227:[…]) using 10 or 15% homogeneous slab gels. SDS sample buffer contained 8% SDS, 10% glycerol, 5% β-mercaptoethanol, 25 mM Tris-HCl, pH 6.5 and 0.003% bromphenol blue. SDS urea polyacrylamide gel electrophoresis was carried out using 6.5 M urea, 0.1% SDS, 100 mM H3PO4, pH 6.8 with Tris-HCl and 9% acrylamide (Swank et al (1971) Anal. Biochem. 39:462). SDS urea sample buffer contained 1% SDS, 8M urea, 10 mM H3PO4, pH 6.8 with Tris-HCl, 1% β-mercaptoethanol and 0.003% bromphenol blue.

[3] = read-out: IC50 (concentration of compound which gave 50% inhibition of βAR kinase), rhodopsin as substrate
[4] = rhodopsin as substrate, mean ± S.E.
[5] = IC50 (concentration of compound which gave 50% inhibition of βAR kinase), rhodopsin as substrate
[6] = IC50 (concentration of compound which gave 50% inhibition of βAR kinase), rhodopsin as substrate, mean ± S.E.
[7] = β2AR as substrate, read-out: IC50 (μM), first intracellular loop peptides as inhibitors of βAR kinase
[8] = hamster β2AR peptides, ND = no significant inhibition at ˜500 μM, read-out: IC50 (μM), inhibition of β2AR phosphorylation by βAR kinase

O=C(O)C(COP(=O)(O)O)OP(=O)(O)O (centres unmarked) [2,3-Diphosphoglycerate, 2,3-diphosphoglycerate]
IC50 (βAR kinase [1]; [3]): 1100 µM
concentration range of inhibition (βAR kinase [1]; rhodopsin as substrate): millimolar range
IC50 (concentration of compound which gave 50% inhibition of βAR kinase) (βAR kinase [1]; [4]): 838 µg/mL

CC[C@H](C)[C@H](NC(=O)[C@H](C)NC(=O)[C@H](CCCCN)NC(=O)[C@H](CCC(N)=O)NC(=O)[C@H](Cc1c[nH]cn1)NC(=O)[C@@H](N)[C@@H](C)O)C(=O)N[C@@H](CC(=O)O)C(=O)N[C@@H](CS)C(=O)N[C@@H](Cc1ccc(O)cc1)C(=O)N[C@@H](Cc1c[nH]cn1)C(=O)N[C@@H](CCCCN)C(=O)N[C@@H](CCC(=O)O)C(=O)N[C@H](C(=O)N[C@@H](CS)C(=O)O)[C@@H](C)O [EII (177-190)] (H-THQKAIDCYHKETC-OH; N-terminus and C-terminus assumed)
inhibition of β2AR phosphorylation (βAR kinase [2]): do not inhibit

O=S(=O)(O)NC1C(O)OC(COS(=O)(=O)O)C(O)C1O (centres unmarked) [Glucosamine 2,6-disulfate, glucosamine 2,6-disulfate]
IC50 (βAR kinase [1]; [3]): 7300 µM
concentration range of inhibition (βAR kinase [1]; rhodopsin as substrate): millimolar range
IC50 (concentration of compound which gave 50% inhibition of βAR kinase) (βAR kinase [1]; [4]): 2800 µg/mL

O=P(O)(O)O[C@H]1[C@H](OP(=O)(O)O)[C@@H](OP(=O)(O)O)[C@H](OP(=O)(O)O)[C@@H](OP(=O)(O)O)[C@H]1OP(=O)(O)O [Inositol hexaphosphate, inositol hexaphosphate]
IC50 (βAR kinase [1]; [5]): 3600 µM
IC50 (βAR kinase [1]; [6]): 5040 µM

O=S(=O)(O)OC1C(OS(=O)(=O)O)C(OS(=O)(=O)O)C(OS(=O)(=O)O)C(OS(=O)(=O)O)C1OS(=O)(=O)O (centres unmarked) [Inositol hexasulfate, inositol hexasulfate]
IC50 (βAR kinase [1]; [5]): 13.5 µM
IC50 (βAR kinase [1]; [6]): 18.2 µM
times more potent than inositol hexaphosphate (βAR kinase [1]; rhodopsin as substrate): ~270 times

Cc1ncc(COP(=O)(O)O)c(C=O)c1O [Pyridoxal phosphate, pyridoxal phosphate]
IC50 (βAR kinase [1]; [5]): 900 µM
IC50 (βAR kinase [1]; [6]): 898 µM
concentration range of inhibition (βAR kinase [1]; rhodopsin as substrate): millimolar range

NCCCNCCCCNCCCN [Spermine, spermine]
inhibition of βAR kinase (βAR kinase [1]): weak inhibitors

NCCCCNCCCN [spermidine]
inhibition of βAR kinase (βAR kinase [1]): weak inhibitors

AIAAFEALQTVTNYF [β2AR (57-71, K → A, R → A)]
IC50 (βAR kinase [2]; [7]): 88 µM

AIAKFERAQTVTAYF [β2AR (57-71, L → A, N → A)]
IC50 (βAR kinase [2]; [7]): 43 µM

AIAKFQRLQTVTNYF [β2AR (57-71, E → Q), AIAKFORLQTVTNYF]
IC50 (βAR kinase [2]; [7]): 280 µM

AIAKTPRLQTLTNLF [β1AR]
IC50 (βAR kinase [2]; [7]): 700 µM

AVFTSRALKAPQNLF [α2AR]
IC50 (βAR kinase [2]; [7]): > 1000 µM

KFERLQT [β2AR (60-66), KFERLQT]
IC50 (βAR kinase [2]; [7]): 2600 µM

KMWNFGNFWC [EI (97-106)]
IC50 (βAR kinase [2]; [8]): 300 µM

SHVPDHDVTEERDEAW [NT (17-32)]
inhibition of β2AR phosphorylation (βAR kinase [2]): do not inhibit

TAIAKFERLQTVTNYFITS [β2AR (56-74)]
IC50 (βAR kinase [2]; [8]): ~40 µM and 40 µM
IC50 (βAR kinase [2]; [7]): 40 µM

VTVQHKKLRTPLNYI [Rhodopsin]
IC50 (βAR kinase [2]; [7]): > 1000 µM

chondroitin sulfate B
IC50 (concentration of compound which gave 50% inhibition of βAR kinase) (βAR kinase [1]; [4]): 25 µg/mL

chondroitin sulfate C
IC50 (concentration of compound which gave 50% inhibition of βAR kinase) (βAR kinase [1]; [4]): 6 µg/mL

de-N-sulfated heparin
Hill coefficient of inhibition (βAR kinase [1]): ~2
fold weaker than heparin (βAR kinase [1]; rhodopsin as substrate): ~8 fold
IC50 (concentration of compound which gave 50% inhibition of βAR kinase) (βAR kinase [1]; [4]): 6.0 ± 2.4 µg/mL

dextran sulfate
Hill coefficient of inhibition (βAR kinase [1]): ~2
IC50 (βAR kinase [1]; [3]): 0.15 µM
IC50 (concentration of compound which gave 50% inhibition of βAR kinase) (βAR kinase [1]; [4]): 0.76 ± 0.21 µg/mL

heparan sulfate
IC50 (concentration of compound which gave 50% inhibition of βAR kinase) (βAR kinase [1]; [4]): 1.8 µg/mL

polyaspartic acid
IC50 (βAR kinase [1]; [3]): 1.3 µM
IC50 (concentration of compound which gave 50% inhibition of βAR kinase) (βAR kinase [1]; [4]): 14 µg/mL

polyglutamic acid
IC50 (βAR kinase [1]; [3]): 2 µM
IC50 (concentration of compound which gave 50% inhibition of βAR kinase) (βAR kinase [1]; [4]): 27 ± 2 µg/mL
